ChEMBL document CHEMBL4308841, “Synthesis, in vitro antiproliferative activity, and kinase inhibitory effects of pyrazole-containing diarylureas and diarylamides” (Eur J Med Chem, 2018)

Legend:
[1] = molecular target: Serine/threonine-protein kinase A-Raf (Homo sapiens) (UniProt P10398); assay: Inhibition of human ARAF at 10 uM using MEK1 (K97R) as substrate after 40 mins in presence of [gamma33P]ATP by scintillation counting method relative to control
TK-10 [2] = assay: Growth inhibition of human TK10 cells incubated for 48 hrs by sulforhodamine B assay; type: functional, cell-based; settings: TK-10, 48 h
HOP-92 [3] = assay: Growth inhibition of human HOP92 cells incubated for 48 hrs by sulforhodamine B assay; type: functional, cell-based; settings: HOP-92, 48 h
[4] = molecular target: PI3-kinase p110-alpha/p85-alpha (Homo sapiens) (UniProt P27986+P42336); assay: Inhibition of human PI3K p110a/p85a at 10 uM using PI(4,5)P2:PS as substrate after 40 mins in presence of [gamma33P]ATP by scintillation counting method relative to control; type: protein-complex assay
[5] = molecular target: DNA-dependent protein kinase catalytic subunit (Homo sapiens) (UniProt P78527); assay: Inhibition of human DNAPK at 10 uM using EPPLSQEAFADLWKK as substrate after 40 mins in presence of [gamma33P]ATP by scintillation counting method relative to control
[6] = molecular target: Tyrosine-protein kinase JAK1 (Homo sapiens) (UniProt P23458); assay: Inhibition of human JAK1 at 10 uM using poly[Glu:Tyr] (4:1) as substrate after 40 mins in presence of [gamma33P]ATP by scintillation counting method relative to control
[7] = molecular target: ALK tyrosine kinase receptor (Homo sapiens) (UniProt Q9UM73); assay: Inhibition of human ALK at 10 uM using poly[Glu:Tyr] (4:1) as substrate after 40 mins in presence of [gamma33P]ATP by scintillation counting method relative to control
[8] = molecular target: Platelet-derived growth factor receptor beta (Homo sapiens) (UniProt P09619); assay: Inhibition of human PDGFRb at 10 uM using poly[Glu:Tyr] (4:1) as substrate after 40 mins in presence of [gamma33P]ATP by scintillation counting method relative to control
Sequence of Platelet-derived growth factor receptor beta (Homo sapiens) (P09619 whole entry): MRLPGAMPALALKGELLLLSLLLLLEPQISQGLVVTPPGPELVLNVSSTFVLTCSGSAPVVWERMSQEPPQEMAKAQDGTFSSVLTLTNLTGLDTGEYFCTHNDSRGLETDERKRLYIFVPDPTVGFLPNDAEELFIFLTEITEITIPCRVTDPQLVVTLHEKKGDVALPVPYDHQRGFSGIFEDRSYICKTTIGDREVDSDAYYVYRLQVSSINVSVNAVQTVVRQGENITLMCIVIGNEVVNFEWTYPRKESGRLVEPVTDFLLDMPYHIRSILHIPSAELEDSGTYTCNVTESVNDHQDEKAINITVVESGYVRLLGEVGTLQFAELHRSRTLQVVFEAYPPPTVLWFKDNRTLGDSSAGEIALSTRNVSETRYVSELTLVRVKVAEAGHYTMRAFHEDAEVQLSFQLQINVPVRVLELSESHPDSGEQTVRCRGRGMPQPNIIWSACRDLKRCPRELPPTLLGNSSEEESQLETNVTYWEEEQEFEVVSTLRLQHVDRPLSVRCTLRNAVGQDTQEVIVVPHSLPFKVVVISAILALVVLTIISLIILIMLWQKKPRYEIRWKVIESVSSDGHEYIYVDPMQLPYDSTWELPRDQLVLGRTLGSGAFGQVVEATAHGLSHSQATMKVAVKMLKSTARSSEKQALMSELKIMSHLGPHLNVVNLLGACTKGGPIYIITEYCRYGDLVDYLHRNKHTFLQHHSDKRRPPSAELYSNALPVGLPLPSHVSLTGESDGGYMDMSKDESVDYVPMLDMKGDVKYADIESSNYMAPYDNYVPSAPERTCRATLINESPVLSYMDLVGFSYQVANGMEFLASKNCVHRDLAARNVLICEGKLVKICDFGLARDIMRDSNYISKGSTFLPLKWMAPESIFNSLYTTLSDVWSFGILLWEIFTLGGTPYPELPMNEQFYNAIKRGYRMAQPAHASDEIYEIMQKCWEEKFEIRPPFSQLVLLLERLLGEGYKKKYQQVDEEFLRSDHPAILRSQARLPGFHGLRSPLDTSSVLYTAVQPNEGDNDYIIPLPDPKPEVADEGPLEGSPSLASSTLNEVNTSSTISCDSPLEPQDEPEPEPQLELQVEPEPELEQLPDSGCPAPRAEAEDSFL

[9] = molecular target: Mast/stem cell growth factor receptor Kit (Homo sapiens) (UniProt P10721); assay: Inhibition of human c-KIT at 10 uM using poly[Glu:Tyr] (4:1) as substrate after 40 mins in presence of [gamma33P]ATP by scintillation counting method relative to control
HOP-92 [10] = assay: Growth inhibition of human HOP92 cells assessed as cell growth at 0.1 uM incubated for 48 hrs by sulforhodamine B assay relative to control; type: functional; settings: HOP-92, 48 h, read-out: Activity
HOP-92 [11] = assay: Growth inhibition of human HOP92 cells assessed as cell growth at 0.01 uM incubated for 48 hrs by sulforhodamine B assay relative to control; type: functional; settings: HOP-92, 48 h, read-out: Activity
TK-10 [12] = assay: Growth inhibition of human TK10 cells assessed as cell growth at 0.1 uM incubated for 48 hrs by sulforhodamine B assay relative to control; type: functional; settings: TK-10, 48 h, read-out: Activity
[13] = molecular target: Epidermal growth factor receptor (Homo sapiens) (UniProt P00533); assay: Inhibition of human EGFR at 10 uM using poly[Glu:Tyr] (4:1) as substrate after 40 mins in presence of [gamma33P]ATP by scintillation counting method relative to control
Sequence of Epidermal growth factor receptor (Homo sapiens) (P00533 whole entry): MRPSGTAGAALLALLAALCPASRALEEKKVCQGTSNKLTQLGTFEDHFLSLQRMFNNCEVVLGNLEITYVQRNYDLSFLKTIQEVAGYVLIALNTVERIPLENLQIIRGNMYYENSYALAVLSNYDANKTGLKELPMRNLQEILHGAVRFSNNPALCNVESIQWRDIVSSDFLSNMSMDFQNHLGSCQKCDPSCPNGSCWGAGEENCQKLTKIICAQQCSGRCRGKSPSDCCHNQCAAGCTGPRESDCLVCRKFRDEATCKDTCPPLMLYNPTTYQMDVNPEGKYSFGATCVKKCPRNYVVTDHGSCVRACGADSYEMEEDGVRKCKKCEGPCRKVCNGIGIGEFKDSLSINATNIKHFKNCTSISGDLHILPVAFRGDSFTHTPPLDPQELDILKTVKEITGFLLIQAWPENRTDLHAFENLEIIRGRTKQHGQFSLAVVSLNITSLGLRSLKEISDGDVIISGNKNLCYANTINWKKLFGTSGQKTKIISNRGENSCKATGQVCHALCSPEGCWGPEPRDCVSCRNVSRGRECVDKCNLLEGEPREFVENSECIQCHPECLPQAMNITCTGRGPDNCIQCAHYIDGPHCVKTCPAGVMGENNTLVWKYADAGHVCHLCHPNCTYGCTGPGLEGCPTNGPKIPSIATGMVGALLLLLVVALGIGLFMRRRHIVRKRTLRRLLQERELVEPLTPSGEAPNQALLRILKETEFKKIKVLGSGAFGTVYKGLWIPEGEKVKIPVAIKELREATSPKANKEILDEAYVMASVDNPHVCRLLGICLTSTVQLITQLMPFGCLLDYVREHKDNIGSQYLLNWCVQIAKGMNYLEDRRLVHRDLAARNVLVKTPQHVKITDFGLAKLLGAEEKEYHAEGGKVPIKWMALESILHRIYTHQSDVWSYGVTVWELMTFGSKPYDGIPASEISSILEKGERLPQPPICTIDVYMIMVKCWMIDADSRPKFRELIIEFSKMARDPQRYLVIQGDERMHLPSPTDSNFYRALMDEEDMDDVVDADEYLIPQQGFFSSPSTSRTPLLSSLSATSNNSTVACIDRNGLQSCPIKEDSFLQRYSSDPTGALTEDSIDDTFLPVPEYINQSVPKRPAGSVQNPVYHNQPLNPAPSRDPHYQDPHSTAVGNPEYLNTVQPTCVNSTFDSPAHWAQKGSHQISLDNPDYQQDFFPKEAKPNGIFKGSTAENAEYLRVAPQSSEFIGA

[14] = molecular target: Receptor tyrosine-protein kinase erbB-4 (Homo sapiens) (UniProt Q15303); assay: Inhibition of human ERBB4 at 10 uM using poly[Glu:Tyr] (4:1) as substrate after 40 mins in presence of [gamma33P]ATP by scintillation counting method relative to control
TK-10 [15] = assay: Growth inhibition of human TK10 cells assessed as cell growth at 0.01 uM incubated for 48 hrs by sulforhodamine B assay relative to control; type: functional; settings: TK-10, 48 h, read-out: Activity
[16] = molecular target: Fibroblast growth factor receptor 1 (Homo sapiens) (UniProt P11362); assay: Inhibition of human FGFR1 at 10 uM using KKKSPGEYVNIEFG as substrate after 40 mins in presence of [gamma33P]ATP by scintillation counting method relative to control
[17] = molecular target: Serine/threonine-protein kinase B-raf (Homo sapiens, UniProt P15056, V600E); assay: Inhibition of human BRAF V600E mutant using MEK1 (K97R) as substrate after 40 mins in presence of [gamma33P]ATP by scintillation counting method
[18] = molecular target: Serine/threonine-protein kinase B-raf (Homo sapiens) (UniProt P15056); assay: Inhibition of human BRAF at 10 uM using MEK1 (K97R) as substrate after 40 mins in presence of [gamma33P]ATP by scintillation counting method relative to control
Sequence of Serine/threonine-protein kinase B-raf (Homo sapiens) (P15056 whole entry): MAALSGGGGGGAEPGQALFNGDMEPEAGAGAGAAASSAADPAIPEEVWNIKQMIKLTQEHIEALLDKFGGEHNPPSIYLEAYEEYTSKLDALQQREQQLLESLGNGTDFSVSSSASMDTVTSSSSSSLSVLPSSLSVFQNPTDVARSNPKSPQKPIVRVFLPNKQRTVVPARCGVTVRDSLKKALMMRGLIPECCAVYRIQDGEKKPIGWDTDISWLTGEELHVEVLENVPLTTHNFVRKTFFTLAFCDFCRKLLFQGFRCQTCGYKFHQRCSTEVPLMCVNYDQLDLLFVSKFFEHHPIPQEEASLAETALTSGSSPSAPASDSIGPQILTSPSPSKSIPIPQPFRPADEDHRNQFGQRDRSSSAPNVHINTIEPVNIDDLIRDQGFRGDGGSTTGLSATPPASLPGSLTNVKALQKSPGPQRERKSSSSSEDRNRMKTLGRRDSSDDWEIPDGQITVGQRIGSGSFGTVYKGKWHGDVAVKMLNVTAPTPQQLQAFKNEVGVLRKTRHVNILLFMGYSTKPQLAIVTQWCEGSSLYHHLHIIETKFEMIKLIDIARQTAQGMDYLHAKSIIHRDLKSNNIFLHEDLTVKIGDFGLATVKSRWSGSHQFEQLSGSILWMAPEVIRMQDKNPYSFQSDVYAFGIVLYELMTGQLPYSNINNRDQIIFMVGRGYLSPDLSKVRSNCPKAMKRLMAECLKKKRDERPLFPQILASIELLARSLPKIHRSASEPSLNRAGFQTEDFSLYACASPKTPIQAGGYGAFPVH

RPMI-8226 = assay: Induction of apoptosis in human RPMI8226 cells assessed as increase in caspase 3/7 level; type: functional, cell-based
HOP-92 [19] = assay: Growth inhibition of human HOP92 cells assessed as cell growth at 100 uM incubated for 48 hrs by sulforhodamine B assay relative to control; type: functional; settings: HOP-92, 48 h, read-out: Activity
[20] = molecular target: Macrophage colony-stimulating factor 1 receptor (Homo sapiens) (UniProt P07333); assay: Inhibition of human FMS at 10 uM using poly[Glu:Tyr] (4:1) as substrate after 40 mins in presence of [gamma33P]ATP by scintillation counting method relative to control
Sequence of Macrophage colony-stimulating factor 1 receptor (Homo sapiens) (P07333 whole entry): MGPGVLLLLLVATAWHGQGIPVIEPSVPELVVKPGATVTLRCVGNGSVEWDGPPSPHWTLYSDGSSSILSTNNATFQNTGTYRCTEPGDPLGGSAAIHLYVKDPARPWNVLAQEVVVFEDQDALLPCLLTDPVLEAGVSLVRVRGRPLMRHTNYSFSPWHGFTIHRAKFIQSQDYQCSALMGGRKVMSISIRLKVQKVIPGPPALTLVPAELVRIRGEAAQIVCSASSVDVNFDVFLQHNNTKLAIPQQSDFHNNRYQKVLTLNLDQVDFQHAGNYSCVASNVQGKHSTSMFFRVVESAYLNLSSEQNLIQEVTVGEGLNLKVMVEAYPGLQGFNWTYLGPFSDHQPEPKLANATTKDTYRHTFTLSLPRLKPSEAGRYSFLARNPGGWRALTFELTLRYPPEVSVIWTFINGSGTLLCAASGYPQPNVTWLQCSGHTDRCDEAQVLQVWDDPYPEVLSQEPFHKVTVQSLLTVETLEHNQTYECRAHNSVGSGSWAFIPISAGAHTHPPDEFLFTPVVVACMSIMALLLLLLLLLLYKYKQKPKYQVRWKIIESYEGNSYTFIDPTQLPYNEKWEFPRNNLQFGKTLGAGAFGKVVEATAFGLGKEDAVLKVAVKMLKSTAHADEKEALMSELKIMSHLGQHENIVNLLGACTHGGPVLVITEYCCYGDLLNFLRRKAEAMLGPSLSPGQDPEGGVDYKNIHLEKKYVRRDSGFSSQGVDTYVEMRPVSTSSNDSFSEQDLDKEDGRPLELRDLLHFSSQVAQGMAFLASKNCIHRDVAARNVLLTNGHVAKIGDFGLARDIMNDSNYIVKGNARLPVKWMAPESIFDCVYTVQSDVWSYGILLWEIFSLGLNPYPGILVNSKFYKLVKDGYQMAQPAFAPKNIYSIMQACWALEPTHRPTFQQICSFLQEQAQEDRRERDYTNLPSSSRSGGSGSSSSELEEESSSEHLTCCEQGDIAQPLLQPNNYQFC

[21] = molecular target: RAF proto-oncogene serine/threonine-protein kinase (Homo sapiens) (UniProt P04049); assay: Inhibition of human c-RAF at 10 uM using MEK1 (K97R) as substrate after 40 mins in presence of [gamma33P]ATP by scintillation counting method relative to control
[22] = read-out: LC50 (the source's name)
[23] = read-out: pLC50 (the source's name) (converted)

Sequence of Serine/threonine-protein kinase A-Raf (Homo sapiens) (P10398 whole entry): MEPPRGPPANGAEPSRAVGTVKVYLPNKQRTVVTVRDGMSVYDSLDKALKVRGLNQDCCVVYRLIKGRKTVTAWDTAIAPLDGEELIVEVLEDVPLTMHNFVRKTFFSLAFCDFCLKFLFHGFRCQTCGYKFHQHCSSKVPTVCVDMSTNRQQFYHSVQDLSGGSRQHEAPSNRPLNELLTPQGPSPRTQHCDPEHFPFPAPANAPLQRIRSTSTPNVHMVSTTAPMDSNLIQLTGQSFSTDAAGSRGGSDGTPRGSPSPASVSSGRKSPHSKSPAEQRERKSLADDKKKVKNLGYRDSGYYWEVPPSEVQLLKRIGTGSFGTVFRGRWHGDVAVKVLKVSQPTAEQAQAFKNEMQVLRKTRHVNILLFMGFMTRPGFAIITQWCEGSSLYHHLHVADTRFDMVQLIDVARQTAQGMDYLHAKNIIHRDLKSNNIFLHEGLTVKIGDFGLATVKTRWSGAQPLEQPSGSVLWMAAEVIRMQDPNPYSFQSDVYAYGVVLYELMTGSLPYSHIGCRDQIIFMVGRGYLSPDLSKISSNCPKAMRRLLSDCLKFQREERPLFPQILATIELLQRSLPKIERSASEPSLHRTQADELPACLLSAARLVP

Compound `COc1cc(Cl)cc(-c2nn(-c3cccc(NC(=O)Nc4cc(C(F)(F)F)cc(C(F)(F)F)c4)c3)cc2-c2ccncc2)c1` has an inhibition [1] of 49.2%, an IC50 (TK-10 [2]) of 680 nM and a GI50 (TK-10 [2]; read-out: GI50) of 654 nM. The CC50 (TK-10 [2]; [22]) was 42.5 nM, the TGI (TK-10 [2]; read-out: TGI) was 14600 nM and the GI50 (TK-10 [2]; read-out: pGI50 (converted)) was 708 nM. It also gave a CC50 (TK-10 [2]; [23]) of 42700 nM, a TGI (TK-10 [2]; read-out: pTGI (converted)) of 14800 nM and an IC50 (HOP-92 [3]) of 230 nM. For the same compound, the GI50 (HOP-92 [3]; read-out: GI50) was 228 nM, the CC50 (HOP-92 [3]; [22]) was 2010 nM and the TGI (HOP-92 [3]; read-out: TGI) was 780 nM. It also gave a GI50 (HOP-92 [3]; read-out: pGI50 (converted)) of 229 nM, a CC50 (HOP-92 [3]; [23]) of 20000 nM and a TGI (HOP-92 [3]; read-out: pTGI (converted)) of 776 nM. It also gave an inhibition [4] of 16.8%, an inhibition [5] of 3.5% and an inhibition [6] of 10.7%. For the same compound, the inhibition [7] was -3.77%, the inhibition [8] was -9.26% and the inhibition [9] was 1.25%. It also gave a growth at 0.1 µM (HOP-92 [10]) of 83%, a growth at 0.01 µM (HOP-92 [11]) of 93% and a growth at 0.1 µM (TK-10 [12]) of 90%. It also gave an inhibition [13] of -7.47%, an inhibition [14] of 0.9% and a growth at 0.01 µM (TK-10 [15]) of 96%. The inhibition [16] was -1.71%, the IC50 [17] was 390 nM and the inhibition [18] was 39.1%. For the same compound, the EC50 (RPMI-8226) was 1520 nM, the growth at 100 µM (HOP-92 [19]) was -77% and the inhibition [20] was -0.94%. The inhibition [21] was 57.8%.
